In publication PMC9814792 (Communications Chemistry, 2022):

Key:
[1] = Aqueous stability in phosphate buffer by UHPLC; format: physicochemical; conditions: for UHPLC peak integral, stability: method A
Method: (§1) For stability measurements BSO-OxOAc (1 mM) was dissolved in phosphate buffer (100 mM, pH 7.4). For reduction experiments BSO-OxOAc (2 mM) was dissolved in phosphate buffer (500 mM, pH 7.4). A 20 mM solution of AA in the same buffer was added in a 1:1 ratio. The samples were immediately measured on a Dionex UltiMate 3000 RS UHPLC system equipped with a Waters Acquity UPLC® BEH C18 column (3×50 mm, pore size 1.7 µm), and absorption detection at 230 nm with incubation at 20 °C (Gradients: Method A: 0.0−0.5 min: 5% eluent B in eluent A; 0.5–5.5 min: 5-95% eluent B; 5.5–8.0 min: 95 % eluent B (eluent A = 0.1% formic acid in water, eluent B = 0.1 % formic acid in acetonitrile), method B: 0.0 − 0.5 min: 5% eluent B in eluent A; 0.5–5.5 min: 5-95% eluent B; 5.5–7.1 min: 95 % eluent B (eluent A = 0.1% formic acid in water, eluent B = 0.1 % formic acid in methanol). Data points were taken every 30 min for 6 h and at 24 h and 24.5 h.

[2] = Reduction kinetics with 10-fold excess of ascorbic acid by UHPLC; format: physicochemical; conditions: 10 mM AA; for UHPLC peak integral, reduction: method B
Method: as §1

[3] = system: HCT116, HCT116/OxR, A2780, A2780/Cis cells; assay: 72 h cell viability (MTT) assay, all malignant cell models; format: cell-based, human
Method: (§2) Cells were seeded (3–4 ×10^3 cells/well) in 96-well plates in 100 µL and after 24 h recovery treated with 100 µL of compounds at the indicated concentrations in triplicates. After 72 h drug exposure cell viability was determined by 3-(4,5-dimethylthiazol-2-yl)-2,5-diphenyltetrazolium bromide (MTT)-vitality assay (EZ4U, Biomedica, Vienna, Austria) following the manufacturer’s recommendations, as published. Absorbance was measured at 450 nm (at 620 nm as reference) using the multimode plate reader Tecan Infinite 200 Pro (Zurich, Switzerland). Cytotoxicity was expressed as IC50 values calculated from full dose-response curves using the 4 parameter nonlinear regression model of GraphPad Prism 8 software (La Jolla, CA, USA).

[4] = system: HCT116 and HCT116/OxR cells; assay: In vitro platinum cell uptake by ICP-MS; format: cell-based, human; conditions: 3 h exposure
Method: Cells were seeded at 1.5 ×10^5 cells/well in six-well plates in 1.5 mL and after 24 h recovery treated with 500 µL of compounds at the indicated concentrations in triplicates. After 3 h drug exposure, cells were detached, washed twice with phosphate-buffered saline (PBS), dried at RT for 15 min and lysed in 100 µL HNO3 (69%, Rotipuran Supra, Carl Roth, Karlsruhe, Germany) for 1 h at RT. The lysate was added to fresh tubes containing 200 µL ddH2O. ICP-MS measurements were performed with an Agilent 8800 ICP-MS/MS instrument (Agilent Technologies, Tokyo, Japan). The sample introduction system consisted of a MicroMist nebulizer (200 μL min^−1 nominal sample uptake) and a quartz double-pass spray chamber. The instrument was tuned on a daily basis in order to achieve maximum sensitivity, low oxide formation, and low doubly charged ratios. Platinum was monitored in no gas mode with an integration time of 0.3 s. The flow injection measurements were performed with a bioinert HPLC 1260 (Agilent Technologies, Waldbronn, Germany), which was directly connected to the nebulizer of the ICP-MS/MS instrument with a PEEK tubing. The following chromatographic conditions were used: injection volume: 10 µL; flow rate: 0.30 mL min^-1; isocratic elution; CH3COONH4 (50 mM, pH = 6.8) aqueous solution was employed as mobile phase. The data were recorded and evaluated with the Agilent MassHunter Chromatography software package, MassHunter 4.6., 2019.

F331, BEC, HaCat cells = assay: 72 h cell viability (MTT) assay, non-malignant cell types; format: cell-based, human
Method: as §2

CT26 cells = assay: 72 h cell viability (MTT) assay; format: cell-based, murine; conditions: CT26, 72 h
Method: as §2

HCT116/OxR cells = assay: 72 h cell viability (MTT) assay; format: cell-based, human
Method: Absorbance was measured at 450 nm (at 620 nm as reference) using the multimode plate reader Tecan Infinite 200 Pro (Zurich, Switzerland). Cytotoxicity was expressed as IC50 values calculated from full dose-response curves using the 4 parameter nonlinear regression model of GraphPad Prism 8 software (La Jolla, CA, USA).

HCT116 cells = assay: 72 h cell viability (MTT) assay; format: cell-based, human; conditions: HCT116, 72 h continuous exposure; read-out: IC50 value (95% confidence interval)
Method: as §2

A2780/Cis cells = assay: 72 h cell viability (MTT) assay; format: cell-based, human
Method: as §2

A2780 cells = assay: 72 h cell viability (MTT) assay; format: cell-based, human; conditions: A2780, 72 h continuous exposure; read-out: IC50 value (95% confidence interval)
Method: as §2

CT26 allografts = assay: In vivo anticancer activity, CT26 allografts; parameters: species or system BALB/c mice
Method: Eight-to nine-week-old female BALB/c mice bred in-house (originally Janvier) were kept in pathogen-free conditions and controlled environment with 12 h light-dark cycle. CT26 cells (5 × 10^5 in 50 µL serum-free RPMI medium) were injected subcutaneously (s.c.) into the right flank of the animals. […] Tumor growth was evaluated by daily recording of tumor size by caliper measurement. […] The reasons were primarily either enhanced tumor size or ulceration. For drug distribution (digestion and ICP-MS measurement details see below), histological and GSH determination experiments, mice were treated twice during one week and sacrificed 24 h after the last drug dosing. The animal experiments were performed according to the regulations of the Ethics Committee for the Care and Use of Laboratory Animals at the Medical University Vienna (proposal number BMBWF-V/3b 2020-0.380.502).

## CCCCS(=N)(=O)CCC(NC(=O)[O][Pt]1([O]C(C)=O)[O]C(=O)C(=O)[O]1)C(=O)O.NC1CCCCC1N (mixture of isomers) [BSO-OxOAc, (OC-6-34)-Acetato(((1 S)-3-(butylsulfonimidoyl)-1-carboxypropyl)carbamato)((1 R,2 R)-1,2-cyclohexanediamino)oxalatoplatinum(IV)]
[1]; 1 mM, 100 mM phosphate buffer pH 7.4, 20 °C
  calculated half-life, aqueous stability: ~ 240 h
[1]; t=0, 1 mM
  UHPLC peak integral, stability: 70.47 mAU
[1]; t=24 h, 1 mM
  UHPLC peak integral, stability: 66.25 mAU
[2]; 1 mM complex, 500 mM phosphate buffer pH 7.4, 20 °C
  t½ reduction kinetics: ~ 51 h
[2]; t=0, 1 mM
  UHPLC peak integral, reduction: 11.87 mAU
[2]; t=24 h, 1 mM
  UHPLC peak integral, reduction: 9.1 mAU
[3]
  enhancement of IC50 values as compared to oxaliplatin: 10- to 50 fold
[4]
  intracellular accumulation in HCT116/OxR as compared to parental HCT116: only non-significantly altered
[4]; both cell models
  overall cellular platinum accumulation compared between compounds: distinctly lower than of oxaliplatin
F331, BEC, HaCat cells
  activity against non-malignant cell types: widely inactive
CT26 cells
  higher IC50 value as compared to oxaliplatin: > 58 fold
HCT116/OxR cells; HCT116/OxR, 72 h continuous exposure, read-out: IC50 value (95% confidence interval)
  IC50: 95.5 µM
HCT116/OxR cells; IC50 HCT116/OxR divided by IC50 HCT116
  resistance factor: 2.9
HCT116 cells
  IC50: 32.1 µM
A2780/Cis cells; A2780/Cis, 72 h continuous exposure, read-out: IC50 value (95% confidence interval)
  IC50: 28.5 µM
A2780/Cis cells; IC50 A2780/Cis divided by IC50 A2780
  resistance factor: 1.4
A2780 cells
  IC50: 20.6 µM
CT26 allografts; CT26 allografts, twice a week for two weeks, equimolar doses
  tumor doubling time extended: 1.2 fold
CT26 allografts; day 11, CT26 allografts, twice a week for two weeks, equimolar to 9 mg/kg oxaliplatin i.v.
  maximal tumor growth inhibition: 51.3%
CT26 allografts; first two weeks of treatment
  tumor volumes as compared to solvent controls: significantly reduced tumor volumes
